Reference: the Kinase Knowledgebase extract (Sharma et al. 2016)
pIC50: −log10 of the molar value.

Target: PIK3CD (Human) (UniProt O00329)
Assay: Inhibition of PIK3CD Kinase Activity

Sequence of PIK3CD (Human) (O00329 whole entry, looked up): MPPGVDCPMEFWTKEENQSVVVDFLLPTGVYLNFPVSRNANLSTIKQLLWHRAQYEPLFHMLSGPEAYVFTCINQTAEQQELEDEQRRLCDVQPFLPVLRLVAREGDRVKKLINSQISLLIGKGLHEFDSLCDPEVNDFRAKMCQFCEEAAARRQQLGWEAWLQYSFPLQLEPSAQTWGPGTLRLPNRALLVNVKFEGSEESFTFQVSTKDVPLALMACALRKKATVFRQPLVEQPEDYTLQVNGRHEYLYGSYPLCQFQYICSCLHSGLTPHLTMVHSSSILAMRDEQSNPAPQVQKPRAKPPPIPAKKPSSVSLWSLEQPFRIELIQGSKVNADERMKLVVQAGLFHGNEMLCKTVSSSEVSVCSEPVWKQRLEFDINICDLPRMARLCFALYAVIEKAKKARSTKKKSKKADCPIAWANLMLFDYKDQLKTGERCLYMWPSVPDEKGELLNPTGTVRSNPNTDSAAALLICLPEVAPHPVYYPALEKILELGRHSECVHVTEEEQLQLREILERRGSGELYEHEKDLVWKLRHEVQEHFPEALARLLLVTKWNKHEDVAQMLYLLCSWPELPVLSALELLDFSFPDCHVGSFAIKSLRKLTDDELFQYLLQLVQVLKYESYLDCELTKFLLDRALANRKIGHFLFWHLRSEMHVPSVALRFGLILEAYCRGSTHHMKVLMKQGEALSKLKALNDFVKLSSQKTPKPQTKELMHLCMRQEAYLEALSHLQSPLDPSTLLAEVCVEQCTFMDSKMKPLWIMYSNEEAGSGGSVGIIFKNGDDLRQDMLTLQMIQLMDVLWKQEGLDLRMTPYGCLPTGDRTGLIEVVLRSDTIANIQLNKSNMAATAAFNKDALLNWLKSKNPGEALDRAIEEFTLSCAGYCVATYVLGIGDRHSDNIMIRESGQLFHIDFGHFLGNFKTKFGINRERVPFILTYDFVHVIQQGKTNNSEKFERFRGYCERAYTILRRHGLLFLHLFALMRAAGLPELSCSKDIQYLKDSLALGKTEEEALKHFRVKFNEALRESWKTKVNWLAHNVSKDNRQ

Work on `CCn1c(CN2CCC(c3cc[nH]n3)CC2)nc2c(N3CCOCC3)nc(-c3c(F)ccc4[nH]ccc34)nc21` yielded a pIC50 greater than 6.30.
